Test results from patent US20070259087A1, “Antimicrobial Peptides” (Novozymes A/S, priority 2003, published 2007).

Test system: E. coli TOP10
Type: cell-based
Settings: end point OD450 after 14 hours, 37 degrees Celsius
Procedure: A range of synthetic antimicrobial polypeptides were expressed in E. coli TOP10 (Invitrogen) using arabinose as inducer, as disclosed in Example 1 of International patent application WO 00/73433 (with minor modifications). […] Briefly, fresh overnight cultures grown in RM medium containing 0.2% glucose and ampicillin (100 μg/ml) were diluted 300-fold into 150 microliter of RM containing 0.2% glycerol and ampicillin (100 μg/ml) and different concentrations of arabinose (0, 0.01% or 0.1%) in a microtiter plate and incubated at 37 degrees Celsius with vigorous shaking. The growth curve was monitored by measuring OD450 using a Bioscreen C Microbiology reader (Thermo Electron Corporation) at intervals of 30 minutes for 14 hours (see Invitrogen protocol of the pBAD/gill A, B and C vectors catalogue nos. V450-01 for buffer and media composition). The percentage of growth inhibition was calculated as the end point OD measurement of each sample divided by the end point OD measurement obtained from cells containing the control vector and multiplied by 100. The formula is the following: [formula] where “blank OD” corresponds to the OD of an empty well.

Sequence | Growth inhibition using 0.01% arabinose (%) | Growth inhibition using 0.1% arabinose (%)
GILNIIGRAVKTVLESIR (Synthetic antimicrobial peptide) [SEQ ID NO:25] | 97% | 99%
GILNKLRKKLKRVLQRIL (Synthetic antimicrobial peptide) [SEQ ID NO:27] | 84% | 97%
GILSKLKKAIKRILQDVLRWL (Synthetic antimicrobial peptide) [SEQ ID NO:43] | 82% | 99%
GILSKLKKKAKNAVKMFCRWL (Synthetic antimicrobial peptide) [SEQ ID NO:46] | 92% | 96%
GILSMLERRWSMYCSIFCRWL (Synthetic antimicrobial peptide) [SEQ ID NO:45] | 98% | 100%
GLFRKLKKTIKRVLKHVP (Synthetic antimicrobial peptide) [SEQ ID NO:31] | 86% | 96%
GLFRKLRKKVKKVLKHVL (Synthetic antimicrobial peptide) [SEQ ID NO:23] | 91% | 98%
GLFSIIMRAVKKVWQRVR (Synthetic antimicrobial peptide) [SEQ ID NO:9] | 97% | 100%
GLFSILKREIKRTFSNFYRWL (GLFSILKREIKRTFSMFYRWL; Synthetic antimicrobial peptide) [SEQ ID NO:41] | 86% | 99%
GLFSLLRKTIKKVLQHIR (Synthetic antimicrobial peptide) [SEQ ID NO:32] | 91% | 99%
GLFTKLRKATKRILEHVL (Synthetic antimicrobial peptide) [SEQ ID NO:3] | 81% | 87%
GLLEKLRKALKRILQHVL (Synthetic antimicrobial peptide) [SEQ ID NO:12] | 91% | 97%
GLLGKIRKEGRNFWRVFRRWL (GLLGKIRKEGRMFWRVFRRWL; Synthetic antimicrobial peptide) [SEQ ID NO:38] | 86% | 92%
GLLGKLKKELKNVLEHIYRWL (Synthetic antimicrobial peptide) [SEQ ID NO:42] | 75% | 93%
GLLGKLKRKIKKALEGIR (Synthetic antimicrobial peptide) [SEQ ID NO:35] | 96% | 99%
GLLKTIRKKIKRVLKHVR (Synthetic antimicrobial peptide) [SEQ ID NO:4] | 96% | 99%
GLLNKIKKTIKRAVQHVL (Synthetic antimicrobial peptide) [SEQ ID NO:18] | 76% | 92%
GLLNKLKKNVKNIVQHILRWL (Synthetic antimicrobial peptide) [SEQ ID NO:40] | 77% | 95%
GLLNKLKRALKKVVKHVR (Synthetic antimicrobial peptide) [SEQ ID NO:33] | 84% | 94%
GLLRILKKKAKKALQHIL (Synthetic antimicrobial peptide) [SEQ ID NO:37] | 86% | 93%
GLLRKIKMKAKKVLKNIL (Synthetic antimicrobial peptide) [SEQ ID NO:22] | 72% | 83%
GLLRKLGKKIKRVVKHVG (Synthetic antimicrobial peptide) [SEQ ID NO:10] | 98% | 100%

Sequence | Growth inhibition using 0.01% arabinose (%) | Growth inhibition using 0.1% arabinose (%)
GLLRKLRKEVKKVLSIFFRWL (Synthetic antimicrobial peptide) [SEQ ID NO:39] | 97% | 99%
GLLSILKRKSKRILKHIL (Synthetic antimicrobial peptide) [SEQ ID NO:24] | 88% | 96%
GLLSKIMKAVKRTLKHIL (Synthetic antimicrobial peptide) [SEQ ID NO:16] | 89% | 99%
GLLSKIRKKLKRVLQSIR (Synthetic antimicrobial peptide) [SEQ ID NO:20] | 77% | 94%
GLLSKLGKAVKNILEDVV (Synthetic antimicrobial peptide) [SEQ ID NO:28] | 98% | 100%
GLLSKLKKTVKRVVKHVR (Synthetic antimicrobial peptide) [SEQ ID NO:19] | 84% | 99%
GLLSKLKRKIKKAVKHIL (Synthetic antimicrobial peptide) [SEQ ID NO:30] | 82% | 95%
GLLSMLGKAVKRAVQHVL (Synthetic antimicrobial peptide) [SEQ ID NO:26] | 97% | 100%
GLLSRLRRATKIILKGIR (Synthetic antimicrobial peptide) [SEQ ID NO:14] | 72% | 88%
GLVTLLKKAMKNALEDVL (Synthetic antimicrobial peptide) [SEQ ID NO:21] | 98% | 99%
GLWNMLKKKLKKIAQGIR (Synthetic antimicrobial peptide) [SEQ ID NO:15] | 73% | 88%
GLWRKLKKALKRAVQGVR (Synthetic antimicrobial peptide) [SEQ ID NO:5] | 91% | 96%
GLWRKLRRKAKKVLQHIL (Synthetic antimicrobial peptide) [SEQ ID NO:13] | 94% | 100%
GLWSSIKKEAKHALKHIL (Synthetic antimicrobial peptide) [SEQ ID NO:29] | 55% | 81%
GMLIKLEMEAKKVVKNVL (Synthetic antimicrobial peptide) [SEQ ID NO:17] | 96% | 99%
GMLKKLKKKTKRAFSVFCRWL (Synthetic antimicrobial peptide) [SEQ ID NO:44] | 96% | 98%
GMLRKLKRKVKRTLQHVL (Synthetic antimicrobial peptide) [SEQ ID NO:8] | 78% | 88%
GMLSKLGITIKIAVKHIR (Synthetic antimicrobial peptide) [SEQ ID NO:6] | 98% | 100%
GWFNKLKTKIKKTLKHVL (Synthetic antimicrobial peptide) [SEQ ID NO:11] | 72% | 90%
GWFSKLKKTAKKLLQRVL (Synthetic antimicrobial peptide) [SEQ ID NO:7] | 76% | 82%
GWLKILEKAAKITVKNVL (Synthetic antimicrobial peptide) [SEQ ID NO:36] | 98% | 97%
GWLRKIGKAVKKVVKRVL (Synthetic antimicrobial peptide) [SEQ ID NO:34] | 90% | 99%
